In PubChem BioAssay (NCI):
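At the GI50, growth is halved. TGI: total growth inhibition.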

Assays:
Experiment in all cases: NCI tumour cell line growth inhibition, 384-well format
LOX IMVI melanoma = test system: LOX IMVI melanoma
SF-539 CNS = test system: SF-539 CNS
NCI/ADR-RES ovarian = test system: NCI/ADR-RES ovarian
HOP-92 NSCLC = test system: HOP-92 NSCLC
MCF7 breast = test system: MCF7 breast
HCT-116 colon = test system: HCT-116 colon
SK-OV-3 ovarian = test system: SK-OV-3 ovarian
HOP-62 NSCLC = test system: HOP-62 NSCLC
HCT-15 colon = test system: HCT-15 colon
NCI-H322M lung = test system: NCI-H322M lung
SN12C renal = test system: SN12C renal
HCC-2998 colon = test system: HCC-2998 colon
DU-145 prostate = test system: DU-145 prostate
SF-268 CNS = test system: SF-268 CNS
SW-620 colon = test system: SW-620 colon
ACHN renal = test system: ACHN renal
K-562 leukemia = test system: K-562 leukemia
A549 NSCLC = test system: A549 NSCLC
SK-MEL-28 melanoma = test system: SK-MEL-28 melanoma
SK-MEL-2 melanoma = test system: SK-MEL-2 melanoma
CAKI-1 renal = test system: CAKI-1 renal
MALME-3M melanoma = test system: MALME-3M melanoma
PC-3 prostate = test system: PC-3 prostate
A498 renal = test system: A498 renal
SNB-19 CNS = test system: SNB-19 CNS
MDA-MB-468 breast = test system: MDA-MB-468 breast
M14 melanoma = test system: M14 melanoma
MOLT-4 leukemia = test system: MOLT-4 leukemia
SNB-75 CNS = test system: SNB-75 CNS
HL-60(TB) leukemia = test system: HL-60(TB) leukemia
IGROV1 ovarian = test system: IGROV1 ovarian
SF-295 CNS = test system: SF-295 CNS
OVCAR-8 ovarian = test system: OVCAR-8 ovarian
UACC-62 melanoma = test system: UACC-62 melanoma
U251 glioblastoma = test system: U251 glioblastoma
NCI-H460 NSCLC = test system: NCI-H460 NSCLC
SK-MEL-5 melanoma = test system: SK-MEL-5 melanoma
NCI-H522 lung = test system: NCI-H522 lung
MDA-MB-435 melanoma = test system: MDA-MB-435 melanoma
RXF 393 renal = test system: RXF 393 renal
UACC-257 melanoma = test system: UACC-257 melanoma
OVCAR-4 ovarian = test system: OVCAR-4 ovarian
HS 578T breast = test system: HS 578T breast
T-47D breast = test system: T-47D breast
TK-10 renal = test system: TK-10 renal
EKVX NSCLC = test system: EKVX NSCLC
NCI-H226 lung = test system: NCI-H226 lung
UO-31 renal = test system: UO-31 renal
CCRF-CEM leukemia = test system: CCRF-CEM leukemia
SR leukemia = test system: SR leukemia
NCI-H23 lung = test system: NCI-H23 lung
OVCAR-5 ovarian = test system: OVCAR-5 ovarian
COLO 205 colon = test system: COLO 205 colon
MDA-MB-231 breast = test system: MDA-MB-231 breast
786-0 renal = test system: 786-0 renal
OVCAR-3 ovarian = test system: OVCAR-3 ovarian
BT-549 breast = test system: BT-549 breast
HT29 colon = test system: HT29 colon
KM12 colon = test system: KM12 colon

Cc1nc(N2CCC3(CC2)CO[C@@H](C)[C@H]3N)c(CO)nc1Sc1ccnc(N)c1Cl
GI50 (LOX IMVI melanoma): 35.5 µM
TGI (LOX IMVI melanoma): > 100 µM
GI50 (SF-539 CNS): 22.1 µM
TGI (SF-539 CNS): > 100 µM
GI50 (NCI/ADR-RES ovarian): 17.7 µM
TGI (NCI/ADR-RES ovarian): > 100 µM
GI50 (HOP-92 NSCLC): 0.115 µM
TGI (HOP-92 NSCLC): 12.4 µM
GI50 (MCF7 breast): 35.1 µM
TGI (MCF7 breast): > 100 µM
GI50 (HCT-116 colon): 37.1 µM
TGI (HCT-116 colon): > 100 µM
GI50 (SK-OV-3 ovarian): 13 µM
TGI (SK-OV-3 ovarian): > 100 µM
GI50 (HOP-62 NSCLC): 54 µM
TGI (HOP-62 NSCLC): > 100 µM
GI50 (HCT-15 colon): 69.3 µM
TGI (HCT-15 colon): > 100 µM
GI50 (NCI-H322M lung): 0.166 µM
TGI (NCI-H322M lung): > 100 µM
GI50 (SN12C renal): 8.42 µM
TGI (SN12C renal): > 100 µM
GI50 (HCC-2998 colon): 35.5 µM
TGI (HCC-2998 colon): 95 µM
GI50 (DU-145 prostate): 97.5 µM
TGI (DU-145 prostate): > 100 µM
GI50 (SF-268 CNS): 91.6 µM
TGI (SF-268 CNS): > 100 µM
GI50 (SW-620 colon): 54.6 µM
TGI (SW-620 colon): > 100 µM
GI50 (ACHN renal): 2.03 µM
TGI (ACHN renal): > 100 µM
GI50 (K-562 leukemia): 0.0619 µM
TGI (K-562 leukemia): 15.7 µM
GI50 (A549 NSCLC): 97 µM
TGI (A549 NSCLC): > 100 µM
GI50 (SK-MEL-28 melanoma): 40.1 µM
TGI (SK-MEL-28 melanoma): > 100 µM
GI50 (SK-MEL-2 melanoma): 34.7 µM
TGI (SK-MEL-2 melanoma): 78.1 µM
GI50 (CAKI-1 renal): 0.414 µM
TGI (CAKI-1 renal): > 100 µM
GI50 (MALME-3M melanoma): 24.2 µM
TGI (MALME-3M melanoma): 54.2 µM
GI50 (PC-3 prostate): 54.4 µM
TGI (PC-3 prostate): > 100 µM
GI50 (A498 renal): 1.08 µM
TGI (A498 renal): > 100 µM
GI50 (SNB-19 CNS): 42.1 µM
TGI (SNB-19 CNS): > 100 µM
GI50 (MDA-MB-468 breast): 0.145 µM
TGI (MDA-MB-468 breast): 1.39 µM
GI50 (M14 melanoma): 21.3 µM
TGI (M14 melanoma): 42.6 µM
GI50 (MOLT-4 leukemia): 27 µM
TGI (MOLT-4 leukemia): > 100 µM
GI50 (SNB-75 CNS): 13.4 µM
TGI (SNB-75 CNS): 94.4 µM
GI50 (HL-60(TB) leukemia): 15.8 µM
TGI (HL-60(TB) leukemia): 29.5 µM
GI50 (IGROV1 ovarian): 0.728 µM
TGI (IGROV1 ovarian): > 100 µM
GI50 (SF-295 CNS): 79.8 µM
TGI (SF-295 CNS): > 100 µM
GI50 (OVCAR-8 ovarian): 17.2 µM
TGI (OVCAR-8 ovarian): 50.5 µM
GI50 (UACC-62 melanoma): 31.4 µM
TGI (UACC-62 melanoma): > 100 µM
GI50 (U251 glioblastoma): 15.6 µM
TGI (U251 glioblastoma): > 100 µM
GI50 (NCI-H460 NSCLC): 41.8 µM
TGI (NCI-H460 NSCLC): > 100 µM
GI50 (SK-MEL-5 melanoma): 16 µM
TGI (SK-MEL-5 melanoma): 31.3 µM
GI50 (NCI-H522 lung): 0.044 µM
TGI (NCI-H522 lung): 18.5 µM
GI50 (MDA-MB-435 melanoma): > 100 µM
TGI (MDA-MB-435 melanoma): > 100 µM
GI50 (RXF 393 renal): 12.5 µM
TGI (RXF 393 renal): 41.5 µM
GI50 (UACC-257 melanoma): 19.3 µM
TGI (UACC-257 melanoma): 38.1 µM
GI50 (OVCAR-4 ovarian): 46.6 µM
TGI (OVCAR-4 ovarian): > 100 µM
GI50 (HS 578T breast): 39.4 µM
TGI (HS 578T breast): > 100 µM
GI50 (T-47D breast): 17.5 µM
TGI (T-47D breast): 82.2 µM
GI50 (TK-10 renal): 0.819 µM
TGI (TK-10 renal): > 100 µM
GI50 (EKVX NSCLC): 3.13 µM
TGI (EKVX NSCLC): 92.3 µM
GI50 (NCI-H226 lung): 0.714 µM
TGI (NCI-H226 lung): > 100 µM
GI50 (UO-31 renal): 11 µM
TGI (UO-31 renal): > 100 µM
GI50 (CCRF-CEM leukemia): 24.5 µM
TGI (CCRF-CEM leukemia): 60.2 µM
GI50 (SR leukemia): 9.08 µM
TGI (SR leukemia): 21.5 µM
GI50 (NCI-H23 lung): 0.0838 µM
TGI (NCI-H23 lung): 20.6 µM
GI50 (OVCAR-5 ovarian): 92.7 µM
TGI (OVCAR-5 ovarian): > 100 µM
GI50 (COLO 205 colon): 41.8 µM
TGI (COLO 205 colon): > 100 µM
GI50 (MDA-MB-231 breast): > 100 µM
TGI (MDA-MB-231 breast): > 100 µM
GI50 ([…]-0 renal): 29.3 µM
TGI (786-0 renal): > 100 µM
GI50 (OVCAR-3 ovarian): 35.8 µM
TGI (OVCAR-3 ovarian): > 100 µM
GI50 (BT-549 breast): 17 µM
TGI (BT-549 breast): > 100 µM
GI50 (HT29 colon): 27.5 µM
TGI (HT29 colon): 71.8 µM
GI50 (KM12 colon): 0.321 µM
TGI (KM12 colon): > 100 µM
